“And” between values parts separate entries of the source, which are not always exact repeats. Equal entries are not always repeated. “Also recorded” adds a separate entry of the source.

One data set deals with rats. The data set is described as follows: Contextual fear conditioning in rats. The following applies: I.V.; furosemide 100 mg/kg, bumetanide 50 mg/kg. Type of data set: in vivo, rat. On the procedure: Contextual fear conditioning involves pairing an aversive event, in this case moderate foot shock, with a distinctive environment. The strength of the fear memory is assessed using freezing, a species-typical defensive reaction in rats, marked by complete immobility, except for breathing. […] However, if they are allowed to explore the distinctive environment sometime before the immediate shock, they show intense anxiety and fear when placed back into the same environment. By procedurally dividing contextual fear conditioning into two phases, the effects of treatments on memory for the context (specifically a hippocampus based process) from learning the association between context and shock or experiencing the aversiveness of the shock (which depend upon emotional response circuitry including amygdala) were separately studied. […] The experiment employed 24 rats. […] Each rat was again placed into the same environment for 8 min during which time freezing was measured, as an index of Pavlovian conditioned fear. […] Measurement of freezing was accomplished through an overhead video camera connected to the microcomputer and was automatically scored using a specialty piece of software, FreezeFrame (OER Inc., Reston, Va.) Total freezing time was analyzed in a one-way analysis of variance (ANOVA) test, with drug dose as the […] factor.

The test system of another data set is mouse. The following applies: literature data; cited from earlier work.
A further data set in a line: in vivo. The following applies: rat.
The next data set concerns the target T1, NKCC1 (Homo sapiens, UniProt P55011).
T1 construct: endogenous in cells; host or cells: human adult skin fibroblasts (primary culture)
The data set is described as follows: NKCC1 Rb+ influx assay in human adult skin fibroblasts. The class given is cell-based. On the procedure: The protocol may be done in accordance with Panet and Alan The Journal of Cell Biology, Volume 114, Number 2, July 1991 337-342. Human adult skin fibroblasts were seeded at 3 concentrations: 3000/5000/10 000 on 96 well culture plates with DMEM supplemented with 10% FCS and 4 mM glutamine (37° C., CO2). Medium was replaced with DMEM supplemented with 0.2% FCS, 4 mM glutamine and 20 mM HEPES (37° C., CO2). The NKCC assay may be performed according the standard operating procedure as described in Chassande, et al. (1988) “The Na+/K+/CI^− cotransport in C6 glioma cells.” Eur. J. Biochem. 171: 425-433.
This allows for the administration of the compounds described herein described herein without unwanted diuretic side effects.

Data set [1] in a line: Tolerability after oral administration. The class given is in vivo.
Data set [2] has as its target T2, α3β3γ2 GABAA receptor isoform (Homo sapiens, UniProt P18507+P28472+P34903).
T2 construct: expressed in transfected cells; host or cells: HEK-293T, transient transfection
Description: Whole-cell patch clamp, transfected HEK-293T cells. The following applies: 10 μM NTP-2014; 1 μM and 100 μM GABA. The class given is cell-based, rat or human. On the procedure:
(§1) The addition of GABA to […] activates the recombinant expressed GABAA receptors, creating an ion movement through the ion channel in the GABAA receptor. The electrical current generated by the movement of chloride ions into the cells can be quantified.
(§2) HEK-293T cells were transiently transfected with rat or human GABAA receptor subunits. Whole-cell patch clamp recording was performed at −50 mV unless otherwise indicated. Test compounds was diluted from a freshly made stock in DMSO, GABA was prepared from a frozen stock. For each experiment GABA or GABA+a test compound was applied for 5 seconds, and the electrical current generated by the movement of chloride ions into the cells was measured and recorded as a trace of current versus time.
(§3) Compounds described herein (e.g., NTP-2014) were tested at high and low GABA concentrations against multiple GABAA receptor isoforms (e.g., α1β3γ2, α2β3 γ2, α3β3γ2, α3β3γ2, α4β3γ2, α5β3γ2, α6β3γ2). […] NTP-2014 inhibits the currents in the parasynaptic α4 GABAA receptor isoform in GABAergic interneurons. […]
A general note: The patch-clamp technique gives a direct electrical read-out from membranes.

For data set [3], the target named is T3, α1β3γ2 GABAA receptor isoform (Homo sapiens, UniProt P14867+P18507+P28472).
T3 construct: expressed in transfected cells; host or cells: HEK-293T, transient transfection
The data set is described as follows: Whole-cell patch clamp, transfected HEK-293T cells. Type of data set: cell-based, rat or human. The following applies: 10 μM NTP-2014. On the procedure:
as §1, §2, §3

Data set [4] concerns the target T4, α6β3γ2 GABAA receptor isoform (Homo sapiens, UniProt P18507+P28472+Q16445).
T4 construct: expressed in transfected cells; host or cells: HEK-293T, transient transfection
Description: Whole-cell patch clamp, transfected HEK-293T cells. Type of data set: cell-based, rat or human. The procedure: as §1, §2, §3

Data set [5] deals with T5, α5β3γ2 GABAA receptor isoform (Homo sapiens, UniProt P18507+P28472+P31644).
T5 construct: expressed in transfected cells; host or cells: HEK-293T, transient transfection
The data set is described as follows: Whole-cell patch clamp, transfected HEK-293T cells. The class given is cell-based, rat or human. The following applies: 10 μM NTP-2014; 1 μM and 100 μM GABA. On the procedure:
as §1, §2, §3

In data set [6] the target is T6, α2β3γ2 GABAA receptor isoform (Homo sapiens, UniProt P18507+P28472+P47869).
T6 construct: expressed in transfected cells; host or cells: HEK-293T, transient transfection
The data set is described as follows: Whole-cell patch clamp, transfected HEK-293T cells. The class given is cell-based, rat or human. The following applies: 10 μM NTP-2014; 1 μM and 100 μM GABA. The procedure: as §1, §2, §3

The nature of data set [7]: Brain levels in rat following IP administration. The following applies: PBx pretreated; for Concentration of NTP-2024 in rat brain: NTP-2024 100 mg/kg IP; for Concentration of NTP-2000 (bumetanide) in rat brain: after NTP-2024 100 mg/kg IP. Type of data set: in vivo.
The next data set concerns Male CD-1 mice. The data set is described as follows: Chung (SNL) neuropathic pain study in mice. The class given is in vivo, mouse. The conditions noted are these: high dose group (180 mg/kg NTP-2014; 100 mg/kg NTP-2026; gabapentin 100 mg/kg, i.p.).

T4 sequence (Q16445 20-453): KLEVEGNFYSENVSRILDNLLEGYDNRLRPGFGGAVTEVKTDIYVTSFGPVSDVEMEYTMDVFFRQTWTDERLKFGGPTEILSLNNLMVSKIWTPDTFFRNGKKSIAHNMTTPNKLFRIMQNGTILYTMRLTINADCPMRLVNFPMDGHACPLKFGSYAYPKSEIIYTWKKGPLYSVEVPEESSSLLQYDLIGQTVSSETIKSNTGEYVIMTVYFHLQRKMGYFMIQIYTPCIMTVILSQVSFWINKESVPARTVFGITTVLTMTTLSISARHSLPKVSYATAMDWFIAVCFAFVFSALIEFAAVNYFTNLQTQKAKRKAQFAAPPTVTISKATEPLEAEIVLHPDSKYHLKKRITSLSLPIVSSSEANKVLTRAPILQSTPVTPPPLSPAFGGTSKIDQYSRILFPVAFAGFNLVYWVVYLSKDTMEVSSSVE
T4 sequence (P28472 26-473): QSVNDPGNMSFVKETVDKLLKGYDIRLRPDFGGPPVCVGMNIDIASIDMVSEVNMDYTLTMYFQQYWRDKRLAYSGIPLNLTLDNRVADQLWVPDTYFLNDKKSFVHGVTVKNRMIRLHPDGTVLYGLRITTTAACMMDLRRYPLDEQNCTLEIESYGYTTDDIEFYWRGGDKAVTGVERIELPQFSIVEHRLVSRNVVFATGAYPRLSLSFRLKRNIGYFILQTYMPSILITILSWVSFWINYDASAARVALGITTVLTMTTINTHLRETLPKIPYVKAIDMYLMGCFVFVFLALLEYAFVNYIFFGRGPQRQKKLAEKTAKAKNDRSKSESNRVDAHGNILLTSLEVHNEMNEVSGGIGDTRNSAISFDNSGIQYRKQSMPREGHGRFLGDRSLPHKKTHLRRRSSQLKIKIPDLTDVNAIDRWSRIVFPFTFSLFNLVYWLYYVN
T4 sequence (P18507 40-475): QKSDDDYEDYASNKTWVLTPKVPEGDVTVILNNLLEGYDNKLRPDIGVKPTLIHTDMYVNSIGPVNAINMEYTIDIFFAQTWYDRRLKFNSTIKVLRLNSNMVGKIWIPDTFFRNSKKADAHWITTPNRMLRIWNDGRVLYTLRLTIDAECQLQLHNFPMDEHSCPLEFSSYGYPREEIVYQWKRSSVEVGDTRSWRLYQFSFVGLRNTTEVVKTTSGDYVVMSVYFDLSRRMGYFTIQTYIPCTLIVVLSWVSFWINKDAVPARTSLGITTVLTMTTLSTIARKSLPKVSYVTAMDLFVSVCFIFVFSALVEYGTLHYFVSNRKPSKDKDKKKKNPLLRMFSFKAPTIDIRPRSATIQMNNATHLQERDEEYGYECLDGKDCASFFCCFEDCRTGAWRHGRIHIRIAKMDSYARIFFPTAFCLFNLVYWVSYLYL
T6 sequence (P47869 29-451): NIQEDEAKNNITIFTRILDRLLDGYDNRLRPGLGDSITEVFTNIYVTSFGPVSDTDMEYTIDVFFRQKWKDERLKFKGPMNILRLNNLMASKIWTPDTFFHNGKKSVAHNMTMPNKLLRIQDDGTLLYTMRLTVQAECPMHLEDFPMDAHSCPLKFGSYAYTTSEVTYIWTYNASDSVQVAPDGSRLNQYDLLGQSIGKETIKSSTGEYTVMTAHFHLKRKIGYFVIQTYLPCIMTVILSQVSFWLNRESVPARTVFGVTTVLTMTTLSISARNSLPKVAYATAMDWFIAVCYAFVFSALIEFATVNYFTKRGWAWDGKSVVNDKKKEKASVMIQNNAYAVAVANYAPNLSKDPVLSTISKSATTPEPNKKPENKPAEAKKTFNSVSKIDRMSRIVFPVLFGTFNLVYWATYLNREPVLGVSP
T6 sequence (P28472 26-473): as the sequence (P28472 26-473) above
T6 sequence (P18507 40-475): as the sequence (P18507 40-475) above
T5 sequence (P31644 32-462): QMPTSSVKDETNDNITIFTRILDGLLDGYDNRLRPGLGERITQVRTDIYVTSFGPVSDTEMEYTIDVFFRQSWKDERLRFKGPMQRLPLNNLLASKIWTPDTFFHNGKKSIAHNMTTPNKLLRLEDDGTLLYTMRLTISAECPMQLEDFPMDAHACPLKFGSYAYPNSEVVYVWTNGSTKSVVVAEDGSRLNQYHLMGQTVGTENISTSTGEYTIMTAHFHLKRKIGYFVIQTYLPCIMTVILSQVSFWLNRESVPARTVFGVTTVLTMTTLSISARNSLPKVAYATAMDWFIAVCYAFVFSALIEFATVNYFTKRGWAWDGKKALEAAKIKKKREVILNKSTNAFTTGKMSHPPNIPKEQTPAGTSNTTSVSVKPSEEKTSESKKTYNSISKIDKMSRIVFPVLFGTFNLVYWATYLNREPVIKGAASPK
T5 sequence (P28472 26-473): as the sequence (P28472 26-473) above
T5 sequence (P18507 40-475): as the sequence (P18507 40-475) above
T1 sequence (P55011 whole entry): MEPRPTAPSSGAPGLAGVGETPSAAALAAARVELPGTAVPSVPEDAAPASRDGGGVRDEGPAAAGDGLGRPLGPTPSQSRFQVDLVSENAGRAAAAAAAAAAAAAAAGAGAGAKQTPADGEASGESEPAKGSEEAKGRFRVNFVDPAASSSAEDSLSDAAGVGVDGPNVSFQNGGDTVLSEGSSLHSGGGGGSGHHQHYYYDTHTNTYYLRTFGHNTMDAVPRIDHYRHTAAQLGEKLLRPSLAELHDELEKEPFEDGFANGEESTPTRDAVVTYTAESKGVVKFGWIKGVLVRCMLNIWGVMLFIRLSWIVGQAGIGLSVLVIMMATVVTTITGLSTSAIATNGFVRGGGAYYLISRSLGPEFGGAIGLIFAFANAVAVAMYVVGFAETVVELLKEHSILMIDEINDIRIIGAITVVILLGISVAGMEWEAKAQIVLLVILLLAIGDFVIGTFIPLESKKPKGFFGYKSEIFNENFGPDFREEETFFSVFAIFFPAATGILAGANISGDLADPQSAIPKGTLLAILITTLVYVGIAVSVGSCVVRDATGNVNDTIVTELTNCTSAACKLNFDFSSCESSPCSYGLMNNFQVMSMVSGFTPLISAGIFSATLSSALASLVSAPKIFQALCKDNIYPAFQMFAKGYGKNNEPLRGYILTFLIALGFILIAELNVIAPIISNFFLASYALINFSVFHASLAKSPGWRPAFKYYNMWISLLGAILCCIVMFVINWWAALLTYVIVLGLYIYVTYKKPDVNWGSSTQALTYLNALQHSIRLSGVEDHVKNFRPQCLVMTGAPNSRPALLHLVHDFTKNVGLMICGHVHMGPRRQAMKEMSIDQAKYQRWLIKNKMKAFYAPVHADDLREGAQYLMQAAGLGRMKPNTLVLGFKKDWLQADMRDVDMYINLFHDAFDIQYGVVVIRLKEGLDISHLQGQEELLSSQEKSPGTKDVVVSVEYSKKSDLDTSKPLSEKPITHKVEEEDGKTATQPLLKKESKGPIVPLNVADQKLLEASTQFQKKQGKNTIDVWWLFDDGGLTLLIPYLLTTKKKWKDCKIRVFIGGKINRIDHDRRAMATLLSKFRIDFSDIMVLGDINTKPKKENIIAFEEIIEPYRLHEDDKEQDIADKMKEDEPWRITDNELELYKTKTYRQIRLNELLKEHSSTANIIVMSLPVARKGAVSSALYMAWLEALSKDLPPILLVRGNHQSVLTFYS
T2 sequence (P34903 29-492): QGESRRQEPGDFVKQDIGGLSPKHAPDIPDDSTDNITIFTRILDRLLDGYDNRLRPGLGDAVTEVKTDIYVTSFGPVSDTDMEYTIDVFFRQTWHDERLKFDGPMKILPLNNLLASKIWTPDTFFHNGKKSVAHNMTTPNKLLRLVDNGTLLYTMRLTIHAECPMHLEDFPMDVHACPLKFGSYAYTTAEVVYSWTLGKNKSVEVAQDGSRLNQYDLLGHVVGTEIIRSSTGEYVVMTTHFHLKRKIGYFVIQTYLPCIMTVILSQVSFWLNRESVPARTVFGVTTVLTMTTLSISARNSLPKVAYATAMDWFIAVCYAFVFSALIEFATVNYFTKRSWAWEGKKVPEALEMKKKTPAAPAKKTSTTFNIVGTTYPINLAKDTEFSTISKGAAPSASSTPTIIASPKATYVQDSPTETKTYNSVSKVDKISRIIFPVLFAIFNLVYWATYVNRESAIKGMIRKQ
T2 sequence (P28472 26-473): as the sequence (P28472 26-473) above
T2 sequence (P18507 40-475): as the sequence (P18507 40-475) above
T3 sequence (P14867 28-456): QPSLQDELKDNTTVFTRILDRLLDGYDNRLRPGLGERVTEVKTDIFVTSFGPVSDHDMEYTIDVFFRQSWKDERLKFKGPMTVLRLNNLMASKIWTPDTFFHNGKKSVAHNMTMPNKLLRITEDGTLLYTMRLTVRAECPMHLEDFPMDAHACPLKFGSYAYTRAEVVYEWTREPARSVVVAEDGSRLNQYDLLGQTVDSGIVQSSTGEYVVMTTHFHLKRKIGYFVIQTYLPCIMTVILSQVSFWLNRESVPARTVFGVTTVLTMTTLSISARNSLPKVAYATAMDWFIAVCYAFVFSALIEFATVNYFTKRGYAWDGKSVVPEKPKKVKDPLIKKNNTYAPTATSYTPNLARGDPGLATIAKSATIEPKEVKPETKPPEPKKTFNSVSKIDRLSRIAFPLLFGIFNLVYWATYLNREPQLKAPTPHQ
T3 sequence (P28472 26-473): as the sequence (P28472 26-473) above
T3 sequence (P18507 40-475): as the sequence (P18507 40-475) above

As for `CCCCNc1cc(C(=O)O)cc(S(N)(=O)=O)c1Oc1ccccc1` [Bumetanide, reference compound], in the data set on rats, the “Freezing vs vehicle alone” value is “significantly less freezing”. In the data set with mouse, the “Activity in early phase formalin paw test” value is on record as “has little” and the “Activity in late phase formalin paw test” value is reported as “is active in late phase”.

With `CCCCN(CCCC)c1cc(C(=O)O)cc(S(N)(=O)=O)c1Oc1ccccc1` [NTP-2014, 3-Aminosulfonyl-5-N,N-dibutylamino-4-phenoxybenzoic acid], the no observed adverse effect level (NOAEL) (usually the highest dose or exposure tested at which no adverse effect was seen) at 14 day in “in vivo” is 500 mg/kg. Also, the “Inhibition of NKCC1 in the presence of a co-transporter activating mitogen (FGF)” value at NKCC1 was “did not inhibit”. At NKCC1 (primary cell cultures), the “Inhibition of NKCC1 chloride transport” value is “no inhibition”. Besides, the CNS side effects result in data set [1] (after oral administration) is recorded as “no CNS side effects”. In addition, the Toxicological tolerability result in data set [1] (in vivo) is listed as “well-tolerated”. The “Effect on current, α3 containing isoform” value in data set [2] is given as “slowed the decay rate; also recorded: inhibited”. Also, the “Effect on current, α1β3γ2 GABAA receptor isoform” value in [3] is on record as “no significant activation; also recorded: amplitude of the current was not increased”. The “Effect on currents, α6 containing receptors” value in data set [4] (0.1, 1, 10 μM GABA) was “inhibited by NTP-2014 at higher GABA concentrations, but unaffected at lower GABA concentrations”. For the same compound, the EC50 (usually the concentration giving half of the maximal effect) in [4] (FIG. 41C, read-out: EC50 in α6 containing GABAA receptor isoforms) turned out to be 20.2 µM. The 50% inhibitory concentration (IC50) – broadly, the concentration needed to halve the response being measured – in data set [4] (read-out: IC50, receptors containing the α6 subunit) fell in the range of 10 to 30 µM. Besides, the “Effect on current, α5 containing isoform” value in data set [5] was “slowed the decay rate; also recorded: inhibited”. Besides, in data set [6], the “Effect on current, α2 containing isoform” value is reported as “slowed the decay rate; also recorded: inhibited”.

Take `CCCCNc1cc(C(=O)NN2CCOCC2)cc(S(N)(=O)=O)c1Oc1ccccc1` [NTP-2024, N-Morpholinyl 3-Aminosulfonyl-5-N-butylamino-4-phenoxybenzamide]: the “Concentration of NTP-2024 in rat brain” value in data set [7] (15 m) was 283.783 ng/mL and 277.985 ng/mL and 226.803 ng/mL; in [7] (30 m), 223.370 ng/mL and 340.460 ng/mL and 348.182 ng/mL; in [7] (2 h) it was 124.854 ng/mL and 112.217 ng/mL and 154.415 ng/mL; in [7] (4 h), 26.6338 ng/mL and 23.4893 ng/mL and 37.1694 ng/mL; in data set [7] (6 h), 25.4146 ng/mL and 18.4619 ng/mL and 25.7880 ng/mL. In addition, the “Concentration of NTP-2000 (bumetanide) in rat brain” value in [7] (15 m), in [7] (2 h), in data set [7] (4 h) and in data set [7] (6 h) was “BLQ (Below Limit of Quantitation (<1 ng/mL))” each time.

Take `CCCCNc1cc(C(=O)N(C)CCCN(C)C)cc(S(N)(=O)=O)c1Oc1ccccc1` [NTP-2026, N-(3-(Dimethylamino)propyl)-N-methyl 3-Aminosulfonyl-5-N-butylamino-4-phenoxybenzamide]: in the data set on Male CD-1 mice, the Sedation result is on record as “Some minor sedation; also recorded: tactile hypersensitivity. Some minor”.
